This is an account of results in patent publication US7378402B2, “Anti-viral nucleosides” (Roche Palo Alto LLC, priority 2004, dated 2008).

One data set deals with HIV. The conditions noted are these: cited from earlier work.
Data set [1] has as its system HCV replicon RNA (Renilla luciferase HCV replicon cells 2209-23, human hepatoma Huh7). Nature of the data set: Renilla luciferase HCV replicon assay. It is filed as cell-based, hepatitis C virus (HCV). The settings on record: Huh-7, 72 h; replicon cells 2209-23, incubated three days at 37° C.; concentration reducing replicon level by 50%.
The conditions of data set [2]: monotherapy; cited from earlier work.

pIC50: −log10 of the molar value.

`CCCCC(=O)O[C@@H]1[C@H](n2ccc(N)nc2=O)O[C@@](CO)(N=[N+]=[N-])[C@H]1OC(=O)CCCC` displayed a melting point of 160.4 to 162.2 °C.

As to `CC(C)C(NC(=O)OC(C)(C)C)C(=O)OC[C@@]1(N=[N+]=[N-])O[C@@H](n2ccc(N)nc2=O)[C@@H](O)[C@@H]1O` (stereo partly shown), the melting point lay within 106.9 to 107.3 °C.

Compound `CCCCCCCCCCCCCC(=O)OC[C@@]1(N=[N+]=[N-])O[C@@H](n2ccc(N)nc2=O)[C@@H](O)[C@@H]1O` had a melting point of 110.3 to 119.3 °C.

As to `C#CC1(CO)OC(n2ccc(N)nc2=O)C(O)C1O` (stereo not shown) [Compound 12a, 4-Ethynyl-cytarabine], the anti-HIV activity entry in the data set with HIV was “good anti-HIV activity”.

In turn, `[N-]=[N+]=N[C@]1(CO)O[C@@H](n2ccc(N)nc2=O)[C@@H](O)[C@@H]1O` [Compound I-1, 4-Amino-1-((2R,3S,4S,5R)-5-azido-3,4-dihydroxy-5-hydroxymethyl-tetrahydro-furan-2yl)-1H-pyrimidin-2-one] gave a pIC50 in data set [1] of 6.66.

As for `NC(=O)c1ncn([C@@H]2O[C@H](CO)[C@@H](O)[C@H]2O)n1` [ribavirin, 1-((2R,3R,4S,5R)-3,4-Dihydroxy-5-hydroxymethyl-tetrahydro-furan-2-yl)-1H-[1,2,4]triazole-3-carboxylic acid amide], in data set [2], the “effect on serum levels of HCV-RNA” value is “does not lower” and the “patients in whom serum amino transferase levels are reduced to normal” value is on record as 40%.

The melting point is the temperature, or range, at which the solid turns liquid. Broadly, the pIC50 is −log10 of the IC50, conventionally taken in molar units. Read a high pIC50 as a small IC50.
